For five compounds, Activity results are on record in ChEMBL document CHEMBL1128785, “Modifications of the MeBmt side chain of cyclosporin A” (Bioorg Med Chem Lett, 1995).

What all share (assay type): functional
Assay [1] concerns the target T1, Interleukin-2 (Mus musculus) (UniProt P04351).
T1 sequence (whole entry): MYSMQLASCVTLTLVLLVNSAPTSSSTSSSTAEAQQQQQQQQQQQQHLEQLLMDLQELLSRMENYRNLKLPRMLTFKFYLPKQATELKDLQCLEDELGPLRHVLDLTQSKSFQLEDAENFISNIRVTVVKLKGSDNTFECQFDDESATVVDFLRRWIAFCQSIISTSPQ
Description: Tested in vitro for inhibition of Interleukin-2 (IL-2) release; 2-3 times less active than compound 1.

The nature of assay [2]: Tested in vitro for mixed Lymphocyte reaction; 2-3 times less active than compound 1.
Assay [3] has as its target T1, Interleukin-2 (Mus musculus). The experiment in a line: Tested in vitro for inhibition of Interleukin-2 (IL-2) release; 100 times less active than cyclosporin A.
Assay [4] can be described thus: Tested in vitro for mixed Lymphocyte reaction; 100 times less active than cyclosporin A.

For `CC[C@@H]1NC(=O)[C@H]([C@H](O)[C@H](C)C[C@@H]2C[C@H]2C)N(C)C(=O)[C@H](C(C)C)N(C)C(=O)[C@H](CC(C)C)N(C)C(=O)[C@H](CC(C)C)N(C)C(=O)[C@@H](C)NC(=O)[C@H](C)NC(=O)[C@H](CC(C)C)N(C)C(=O)[C@H](C(C)C)NC(=O)[C@H](CC(C)C)N(C)C(=O)CN(C)C1=O`, the Activity in assay [1] and in assay [2] was 2-3 times less active than compound 1 each time.

As for `CC[C@@H]1NC(=O)[C@H]([C@@H]2OC(C(C)=O)C[C@H]2C)N(C)C(=O)[C@H](C(C)C)N(C)C(=O)[C@H](CC(C)C)N(C)C(=O)[C@H](CC(C)C)N(C)C(=O)[C@@H](C)NC(=O)[C@H](C)NC(=O)[C@H](CC(C)C)N(C)C(=O)[C@H](C(C)C)NC(=O)[C@H](CC(C)C)N(C)C(=O)CN(C)C1=O` (stereo not given in full), the Activity in assay [3] and in assay [4] was 100 times less active than cyclosporin A throughout.

For the compound `CC[C@@H]1NC(=O)[C@H]([C@@H]2O[C@]3(O)CC[C@@H]3C[C@H]2C)N(C)C(=O)[C@H](C(C)C)N(C)C(=O)[C@H](CC(C)C)N(C)C(=O)[C@H](CC(C)C)N(C)C(=O)[C@@H](C)NC(=O)[C@H](C)NC(=O)[C@H](CC(C)C)N(C)C(=O)[C@H](C(C)C)NC(=O)[C@H](CC(C)C)N(C)C(=O)CN(C)C1=O`, the Activity in assay [3] and in assay [4] was 100 times less active than cyclosporin A each time.

For the compound `CC[C@@H]1NC(=O)[C@H]([C@H](O[Si](C)(C)C(C)(C)C)[C@H](C)C[C@H]2OC23CC3)N(C)C(=O)[C@H](C(C)C)N(C)C(=O)[C@H](CC(C)C)N(C)C(=O)[C@H](CC(C)C)N(C)C(=O)[C@@H](C)NC(=O)[C@H](C)NC(=O)[C@H](CC(C)C)N(C)C(=O)[C@H](C(C)C)NC(=O)[C@H](CC(C)C)N(C)C(=O)CN(C)C1=O`, the Activity in assay [3] and in assay [4] was 100 times less active than cyclosporin A in each case.

In the case of `CC=C=CC[C@@H](C)[C@@H](O)[C@H]1C(=O)N[C@@H](CC)C(=O)N(C)CC(=O)N(C)[C@@H](CC(C)C)C(=O)N[C@@H](C(C)C)C(=O)N(C)[C@@H](CC(C)C)C(=O)N[C@@H](C)C(=O)N[C@H](C)C(=O)N(C)[C@@H](CC(C)C)C(=O)N(C)[C@@H](CC(C)C)C(=O)N(C)[C@@H](C(C)C)C(=O)N1C`, the Activity in assay [1] and in assay [2] was 2-3 times less active than compound 1 each time.
